Assays:
[1] = test system: PDAC cell lines; test: tetrazolium salt reduction (WST) assay in PDAC cell lines; assay type: cell-based, human; settings: WST screen, three human pancreatic cancer cell lines
Description: To determine the effects of LXR ligands on PDAC cell proliferation, cells were treated with synthetic LXR agonist GW3965 and live cells were quantified using trypan blue exclusion assays. […] FIGS. 8A, 8B, and 8C show dose-dependent decreases in cell proliferation in BxPC-3, Mia-PaCa-2, and PANC-1, respectively upon treatment with increasing GW3965 concentrations. […] Clonogenic assays were also employed to evaluate the effects of long-term LXR ligand treatment on cell proliferation and colony formation. […] These findings indicate that LXRs are involved in PDAC cell proliferation and targeting LXRs with ligands perturb their normal functions in cell proliferation.
(§1) The initial identification and subsequent characterization of the two novel LXR ligands and their derivative compounds was carried out in screens in three human pancreatic cancer cell and one non-transformed human pancreatic epithelial cell line in three or more replicate experiments for each cell line using the WST tetrazolium salt reduction assays.

[2] = test system: HPNE cells; test: growth of non-transformed pancreatic epithelial cells (WST screen; FIG. 32D); assay type: cell-based, human; settings: WST screen
Description: as §1
(§2) The synthesis and characterization of KD-01-39, a derivative of 3A4, have not been described previously.

[3] = test system: KPC tumor cells; test: growth of KPC tumor cells from mouse model of PDAC; assay type: cell-based
Text: The effects of the ligands and derivatives on the growth of PDAC cells were further validated by cell counting and clonogenic assays.

[4] = molecular target: T1, LXR proteins (Homo sapiens, UniProt P55055); test: LXR protein levels after long-term treatment of pancreatic cancer cells; assay type: cell-based; settings: long-term treatments
T1 construct: expression of LXR proteins in different pancreatic cancer cell lines following long-term treatments; endogenous in cells; host or cells: pancreatic cancer cell lines (BxPC-3, MIA PaCa-2, PANC-1 named elsewhere)
Description: (§3) To elucidate mechanisms of inverse agonism by the novel ligands, TR-FRET experiments were conducted to determine the effects of 1E5 and 3A4 on the recruitment of NR co-activators and co-repressors. […] In addition to their functions as inverse agonists, extended treatments with 1E5 and 3A4 also destabilized or decreased LXR proteins.

[5] = test system: pancreatic cancer cells; test: metabolomic analysis using mass spectroscopy in pancreatic cancer cells; assay type: cell-based, human; settings: PDAC cells
Description: To further characterize the mechanisms of action of novel LXR modulators 1E5 and 3A4, metabolomic and transcriptomic analysis of pancreatic cancer cells were conducted in response to treatment. […] PDAC tumors have altered metabolism to support its growth and survival. Previous studies have reported that Kras upregulates the non-canonical use of glutamine to maintain NADPH/NADP+ ratio which in turn regulates redox homeostasis. This unconventional use of glutamine by PDAC cells fuel cancer cell proliferation and survival. Glutamine metabolism in PDAC has two unique functions: 1. Glutamine-derived Glutamate is used for glutathione (GSH) biosynthesis. 2. Glutamine facilitates generation of reducing equivalents in the form of NADPH. In PDAC mitochondria, glutamine is converted to glutamate by glutaminase enzyme (GLS1). This glutamine derived glutamate is conventionally converted to alpha-ketoglutarate by glutamate dehydrogenase (GLUD1) to fuel citric acid cycle. However, in PDAC cells glutamate is converted to aspartate in cytosol which is converted to malic acid and NADPH is produced during this process. This process is essential to maintain redox homeostasis in the tumor. However, this non-canonical use of glutamine is dispensable in non-malignant cells. Therefore, targeting GLS1 to decrease the bioavailability of glutamate to act as source of nitrogen and carbon for the synthesis of amino acids and nucleic acids is a viable strategy to target PDAC tumors. […] The effect of 1E5 is similar to BPTES, a potent GLS1 inhibitor.
TCA cycle intermediates act as anaplerotic substrate for gluconeogenesis and lipogenesis. […] GOT2 converts glutamine-derived glutamate to alpha-KG. During this process oxaloacetate is converted to aspartate which is required to maintain redox homeostasis. Studies have shown that inhibition of GOT2 in PDAC promotes senescence.
(§4) To determine if 1E5 and 3A4 can induce apoptosis, PDAC cells were treated with the LXR ligands and subjected to pro-apoptotic caspase cleavage analysis. […] Metabolomic profiling following treatments with the two ligands indicated the activation of two distinct cell death mechanisms. Ferroptosis is a non-apoptotic form of cell death which is characterized by accumulation of lipid peroxides by loss of glutathione peroxidase 4 (GPX4) activity. It can also be induced by accumulation of intracellular iron and depletion of reduced glutathione (GSH). GPX4 is an anti-oxidant enzyme involved in conversion of PUFA peroxides to PUFA alcohols. GSH is a critical cofactor of GPX4 and acts as a reducing agent to reduce the lipid peroxides. Therefore, direct inhibition of GPX4 activity or reduction in GSH levels trigger ferroptosis. The second mechanism of inducing ferroptosis is accumulation of polyunsaturated fatty acids (PUFAs) in cells. Studies have shown that PUFAs are the most susceptible lipids to peroxidation.
Expression profiles of ferroptosis genes in RNAseq data following 1E5 treatment were also consistent with its pro-ferroptotic actions. […] Polyamines are amino-acid derived polycationic alkylamines that are required for the growth of cells. SAT1 catalyzes the acetylation of spermidine and spermine to form N-acetylspermidine and N-acetylspermine respectively. […] SAT1 induces ferroptosis by upregulating the peroxidation of PUFA arachidonic acid. Ceramides are sphingolipids consisting of sphingosine and fatty acid acyl chain. Cellular stress leads to upregulation of ceramide synthesis which mediate caspase-dependent apoptosis. Accumulation of ceramides/hexosylceramides in the mitochondria leads to the formation of channel like structures in the mitochondrial outer membrane which increases the permeability of pro-apoptotic proteins such as cytochrome c. ER stress is also known to activate de-novo synthesis of ceramides and induce apoptosis by increasing the flow of Ca ions and upregulating the unfolded protein stress response. […]

[6] = test system: MCF-7 cells; test: breast cancer cell proliferation; assay type: cell-based
Text: (§5) The inhibitory effects of LXR ligands in breast cancer cells have been shown previously. […] The observed decreases in LXR protein levels were not affected by proteasome inhibitor MG132.

[7] = test system: MDA-MB-231 cells; test: breast cancer cell proliferation; assay type: cell-based
Text: as §5

[8] = test system: LXR-LBD; test: differential scanning fluorimetry; assay type: binding
Text: as §2

[9] = test system: LXR ligand-binding domain; test: TR-FRET assay of co-activator and co-repressor peptide recruitment; assay type: biochemical
Description: as §3, §2

[10] = test system: MCF-7; test: expression of LXR target genes in breast cancer cells; assay type: cell-based; settings: MCF-7, ER-positive
Text: as §5

[11] = test system: MDA-MB-231; test: as above; assay type: cell-based; settings: MDA-MB-231, triple-negative
Text: as §5

[12] = test system: LXR target genes SREBF1c, ABCA1, and ABCG1; test: expression of LXR target genes in pancreatic cancer cell lines; assay type: cell-based, human
Text: To characterize the activity of the newly discovered ligands, the expression of LXR target genes SREBF1c, ABCA1, and ABCG1 was examined following treatment with vehicle, synthetic agonist GW3965, and Compounds 1E5 and 3A4. […] Basal expression of SREBF1c, the canonical LXR target gene involved in the regulation of glucose and lipid metabolism, was disrupted by the addition of novel LXR ligands, whereas their expression was induced following treatment with synthetic agonist GW3965 in all three pancreatic cancer cell lines tested, whereas the effects on ABCA1 and ABCG1 varied between the two novel ligands and across the cell lines.
as §3

[13] = test system: LXR in MDA-MB-231 cells; test: western blot of LXR protein levels; assay type: cell-based
Text: as §5

[14] = test system: LXR proteins in MCF-7 cells; test: western blot of LXR protein levels; assay type: cell-based
Text: as §5

[15] = test system: PDAC cells; test: pro-apoptotic caspase cleavage analysis; assay type: cell-based, human
Description: as §4
Accumulation of C18 ceramides in the mitochondria leads to the recruitment of auto phagosomes in mitochondria and induces LC3-ceramide dependent lethal mitophagy. […] Darkened circles indicate increases and the size of the circle corresponds to the significance of changes.

[16] = test system: human PDAC cell lines; test: cell viability response curves with increasing concentrations; assay type: cell-based

T1 sequence (P55055 whole entry): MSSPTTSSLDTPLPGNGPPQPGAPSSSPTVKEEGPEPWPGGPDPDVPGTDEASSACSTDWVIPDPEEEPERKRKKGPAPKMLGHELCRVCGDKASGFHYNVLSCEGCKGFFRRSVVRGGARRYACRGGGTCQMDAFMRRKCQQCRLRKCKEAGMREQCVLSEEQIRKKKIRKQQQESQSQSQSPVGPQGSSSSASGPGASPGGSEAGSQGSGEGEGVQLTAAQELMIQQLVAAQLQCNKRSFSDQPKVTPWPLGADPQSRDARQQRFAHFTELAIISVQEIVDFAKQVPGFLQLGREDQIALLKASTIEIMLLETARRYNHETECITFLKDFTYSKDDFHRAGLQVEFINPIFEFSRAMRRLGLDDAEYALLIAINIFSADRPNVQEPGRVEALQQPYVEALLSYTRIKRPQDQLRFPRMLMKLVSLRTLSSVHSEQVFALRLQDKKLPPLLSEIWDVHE

activity against non-transformed HPNE cells [2]: little activity
LXR protein levels [4]: decreased LXR protein levels
binding of NCOR and SMRT co-repressor peptides ([9]; co-repressor (NCOR and SMRT-ID2) peptides): increased the binding
SMILES: COc1cc(OC)cc(C(=O)N2CCN(c3ccccc3C)CC2)c1 [Compound 3A4, 1-(3,5-dimethoxybenzoyl)-4-(2-methylphenyl)piperazine]
human pancreatic cancer cells growth [1]: effective in inhibiting human pancreatic cancer cells growth
growth of KPC tumor cells [3]: blocked the growth
levels of C18 and C16 ceramides and hexosylceramides [5]: significantly upregulates
proliferation of MCF-7 cells [6]: inhibited the proliferation
proliferation of MDA-MB-231 cells [7]: inhibited
LXR-LBD structure and dye dissociation with increasing temperature [8]: disrupted the LBD structure
co-activator peptide binding to LXR ligand-binding domain ([9]; co-activator (D22) peptide): did not affect co-activator peptide binding
expression of LXR target genes [10]: generally down-regulated
expression of LXR target genes [11]: generally down-regulated
basal expression of SREBF1c ([12]; all three pancreatic cancer cell lines): disrupted
expression of FASN, SCD, and ACC ([12]; pancreatic cancer cells): decreased the expression
expression of LXR target genes ([12]; three pancreatic cancer cell lines): reducing the expression of LXR target genes
LXR protein levels (degradation) [13]: only 1E5 degraded LXR
LXR protein levels (degradation) [14]: act as degraders of LXR proteins
pro-apoptotic caspase cleavage [15]: induced pro-apoptotic caspase cleavage
apoptosis ([15]; PDAC cells): induces caspase-dependent apoptosis
potency in response curves compared to GW3965 [16]: more potent activity as compared to GW3965
